Results: patent publication US20240401101A1, “A LIVE CELL ASSAY TO DETERMINE PERMEABILITY OF TEST MOLECULES TO AND/OR WITHIN THE PEPTIDOGLYCAN SCAFFOLD OF BACTERIA CELLS” (priority 2021, published 2024)

Assays:
Format in all cases: cell-based, Mycobacterium smegmatis
M. smegmatis mc^2 155 [1] = test: PAC-MAN competition with azide-modified test molecules; settings: concentration dependent analysis, 2 h, then Fl-az; read-out: EC50 of apparent permeation
Experimental: Competition with test molecules. To a 96-well plate added 100 uL DBCO-modified M. smegmatis mc^2 155 cells pre well with 50 μM test molecules, in triplicate respectively. The plate was incubated in 37° C. for 2 h. The cells were spun down for 2 min at 3000 g. The supernatant was decanted, and 50 μM FAM-N3 was then added to each well, followed by incubation in 37° C. for 1 h. The cells were then spun down again, and the pellets were washed with PBST for 2 times and fixed with 4% formaldehyde for 15 mins. The samples were then analyzed by Attune™ NxT Acoustic Focusing Cytometer.
LLysN3 competition. To a 96-well plate added 100 uL DBCO-modified M. smegmatis mc^2 155 cells pre well with different concentration of L-Lys-N3 described in the main text, in triplicate respectively. The plate was incubated in 37° C. for 2 h. The cells were spun down for 2 min at 3000 g. […] The samples were then analyzed by Attune® NxT Acoustic Focusing Cytometer.
Next, we set out to benchmark the ability of the assay to report on the permeability of a set of test small molecules by performing a pilot screen with azide-conjugated compounds. […] Next, cells are treated with Fl-az to quantify the level of unreacted DBCO epitopes.^42 Finally, cells are analyzed by flow cytometry to measure total cellular fluorescence.

M. smegmatis mc^2 155 [2] = test: Example IV: metabolic PG labeling of Msm with DBCO tags followed by azide fluorophore, flow cytometry
Experimental: General method for bacterial peptidoglycan modification. M. smegmatis strains was inoculated from the glycerol stock to the according media and grown for 24 hours until 0.5-0.6 OD, tetrapeptide probes were added to the media and the cells were grown overnight to achieve stationary phase. The cells were harvested the next day and spun down for 2 min at 3000 g, washed with phosphate buffered saline with tween80 (PBST, PBS with 0.05% tween 80) two times and resuspended in PBST to yield DBCO-modified M. smegmatis cells for further labeling and other experiments.
(§1) DBCOtetra compared with stereo control and single amino acid DBCO. M. smegmatis mc^2 155 was inoculated from stationary phase in 1:100 dilution to a fresh 7H9 media with ADC. 25 μM Dap-DBCO, DBCOtetra or DBCOtera(L) were added to the culture tubes respectively, and the cells were grown for 36-40 hours until stationary phase. The cells were harvested and spun down for 2 min at 3000 g, washed with PBST two times and resuspended in PBST. To a 96-well plate added 100 μL cells pre well with 50 μM FAM-N3 in triplicate. The plate was incubated in 37° C. for 1 h and spun down for 2 min at 3000 g. The supernatant was decanted, and the pellets were washed with PBST for 2 times and fixed with 4% formaldehyde for 15 mins. The samples were then analyzed by Attune™ NxT Acoustic Focusing Cytometer.
as §1, with “Confirm for click chemistry on PG.” for “DBCOtetra compared with stereo control and single amino acid DBCO.”, “μM” for “μM Dap-DBCO,”, “FL-tetra” for “DBCOtera(L)”, “uL” for “μL”, “FAM-N3 or 5-carboxy fluorescein accordingly” for “FAM-N3”
as §1, with “Different concentrations of DBCOtetra.” for “DBCOtetra compared with stereo control and single amino acid DBCO.”, “ADC. 5 μM, 10 μM or” for “ADC.”, “μM” for “μM Dap-DBCO,”, “DBCOtetra” for “DBCOtetra or DBCOtera(L)”, “1h” for “1 h”
Different concentration of FAM-N3 and different time. M. smegmatis mc^2 155 was inoculated from stationary phase in 1:100 dilution to a fresh 7H9 media with ADC. 25 μM DBCOtetra were added to the culture tubes, and the cells were grown for 36-40 hours until stationary phase. The cells were harvested and spun down for 2 min at 3000 g, washed with PBST two times and resuspended in PBST. To a 96-well plate added 100 μL cells pre well with different concentration of FAM-N3 described in the main text, 9 wells each. […] The samples were then analyzed by Attune™ NxT Acoustic Focusing Cytometer. […]

Msm ldtΔ5 (PM2750 Δ5) = test: TetD labeling of Ldt knock out strain; settings: 25 μM TetD, 50 μM Fl-Az
Experimental: Ldt knock down strain. M. smegmatis mc^2 155 and PM2750 Δ5 were inoculated from the glycerol stock to the according media and grown for 24 hours until 0.5-0.6 OD, 25 μM DBCOtetra were added to the media, and the cells were grown overnight to achieve stationary phase. The cells were harvested and spinned down for 2 min at 3000 g, washed with PBST two times and resuspended in PBST. To a 96-well plate added 100 uL cells pre well with 50 μM FAM-N3 accordingly in triplicate. The plate was incubated in 37° C. for 1 h and spun down for 2 min at 3000 g. The supernatant was decanted, and the pellets were washed with PBST for 2 times and fixed with 4% formaldehyde for 15 mins. The samples were then analyzed by Attune™ NxT Acoustic Focusing Cytometer.

M. smegmatis cells = test: Ethidium bromide and Nile red whole-cell accumulation assay; settings: cells treated with vehicle or TetD (25 or 50 μM); both dyes
Experimental: Ethidium bromide and Nile red whole-cell accumulation assay. To a Costar 96-well half area black opaque flat bottom plate added 100 uL DBCO-modified M. smegmatis cells each well with 5 μM ethidium bromide and 10 μM Nile red in triplicates, respectively. The fluorescent intensity at different time points were taken by a Synergy H1 microplate reader for 90 min with 3 min intervals and continuously orbital shaking. Wavelengths ethidium bromide, excitation 530 nm, emission 590 nm; Nile red, excitation 540 nm, emission 630 nm.

Compound | EC50 (M. smegmatis mc^2 155 [1]) [µM] | PG labeling levels (fluorescence) above vehicle treated cells (M. smegmatis mc^2 155 [2]; Msm, metabolic label then Fl-az) [fold] | fluorescence levels of Msm (M. smegmatis mc^2 155 [2]; metabolic label and/or fluorophore as named) | decrease of fluorescence levels relative to the parental cells (Msm ldtΔ5 (PM2750 Δ5)) [fold] | accumulation of the permeability probe (EtBr or Nile Red) (M. smegmatis cells)
[N-]=[N+]=NCCCC[C@H](N)C(=O)O [Lys] | 100 | – | – | – | –
C[C@H](NC(=O)CCC(=O)N1Cc2ccccc2C#Cc2ccccc21)C(=O)N[C@H](CCC(=O)N[C@@H](CCCCN)C(=O)N[C@H](C)C(=O)O)C(N)=O [TetD] | – | ~85 | concentration-dependent increase in cellular fluorescence | ~7 | no significant change in the accumulation of the permeability probe
